Assay results published in patent US12285434B2, “Therapeutic, preventive, or improvement agent for inflammatory disease and allergic disease” (The University of Tokyo, priority 2018, dated 2025).

Key:
[1] = tested on: histamine-induced vascular permeability in mouse ears; assay: Modified Miles assay: histamine-induced vascular hyperpermeability (Evans blue extravasation); assay type: in vivo, mouse (C57BL/6); conditions: 15 minutes, before 400 μg histamine
Procedure: Fifteen (15) minutes after the intracutaneous injection, a vehicle (80% acetone) or histamine (400 μg, manufactured by Molecular Probes) was percutaneously administered to the ventral surface of the ears. To evaluate vascular permeability, Evans blue (50 mg/kg, manufactured by Sigma) was injected intravenously 5 minutes after the administration of histamine. The mice were then euthanized by cervical dislocation 30 minutes after the injection of Evans blue. The ears were dissected, dried at 55° C., and weighed. Extravasated Evans blue present in the ears was extracted in formamide (manufactured by Molecular Probes), and quantified spectrophotometrically (manufactured by PerkinElmer Japan Co., Ltd.) at a wavelength of 610 nm.

[2] = tested on: DSS-induced colitis model mice; assay: DSS-induced colitis: colitis severity (body weight, fecal score, colon length); assay type: in vivo, mouse (C57BL/6); conditions: 1 mg/kg/day intraperitoneally on Days 9, 11 and 13
Description: (§1) C57BL/6 strain mice (male, 8 to 12 weeks old) were fed with water containing 2% dextran sodium sulfate (manufactured by MP Bio, hereinafter sometimes referred to as “DSS”) for 4 days to prepare colitis model mice (hereinafter, sometimes referred to as “colitis group” in Examples 7 to 10). The mice taken with DSS for 4 days were fed with normal water from Day 5. The DSS intake start date was defined as Day 1 of the test, and the day before the DSS intake start date was defined as Day 0 of the test. In addition, a group in which C57BL/6 strain mice (male, 8 to 12 weeks old) were fed with normal water was defined as a “healthy group” (the same applies to Examples 8 to 10).
In order to evaluate colitis severity, the fecal condition was evaluated and the body weight was measured daily for the colitis model mice and healthy group prepared in the above item (1). The fecal condition was evaluated based on the following five-grade fecal scores. Specifically, the fecal scores were 0: normal; 1: soft but still formed; 2: very soft; 3: diarrhea; and 4: bloody feces. In addition, the colon length was measured as an index of the colitis severity.
(§2) To investigate the role of 5,6-DiHETE in the healing phase, the colitis model mice prepared in Example 7(1) were intraperitoneally injected with 5,6-DiHETE (manufactured by Cayman Chemical) (50 μg/kg/day) or HC-067047 (manufactured by Cayman Chemical) (1 mg/kg/day) on Days 9, 11 and 13 of the test (hereinafter, sometimes referred to as “5,6-DiHETE-administered group” and “HC-067047-administered group,” respectively, in Examples 9 and 10). HC-067047 is known to inhibit an increase of calcium ion concentration in endothelial cells.
The colitis severity was determined according to the index and criteria described in Example 7(2).

[3] = tested on: DSS-induced colitis model mice; assay: DSS-induced colitis: histologic score and colon edema (wet/dry weight ratio); assay type: in vivo, mouse (C57BL/6); conditions: Day 14; 1 mg/kg/day intraperitoneally on Days 9, 11 and 13
Description: as §1, §2
Distal colon sections on Day 14 of the test in the healthy group, colitis group, 5,6-DiHETE-administered group and HC-067047-administered group were fixed in 4% paraformaldehyde for 24 hours, embedded in paraffin and cut into 2 μm-thick sections. Hematoxylin staining and eosin staining of these sections were performed according to a conventional method. The histologic score was then decided according to the description of Kruschewski M. et al., Digestive Diseases and Sciences, 46: 2336-2343 (2001) to evaluate the colitis severity.
The wet/dry weight ratio was used as an index of colon edema (Rachmilewitz D. et al., Gastroenterology, 97: 326-337(1989)). Specifically, the distal colon was collected, and the wet weight was measured. The distal colon was then dried at 60 C for 24 hours, and, thereafter, the dry weight was measured.

[4] = tested on: anaphylaxis model mice; assay: Histamine-induced anaphylaxis: blood pressure and body temperature; assay type: in vivo, mouse (C57BL/6); conditions: 200 mg/kg intravenously 15 minutes before histamine 50 mg/kg
Procedure: Histamine (50 mg/kg) lysed in a physiological saline solution was intravenously administered to C57BL/6 strain mice (male, 8 to 12 weeks old) to prepare anaphylaxis model mice (hereinafter, sometimes referred to as “anaphylaxis group”). […] L-NAME is an NO synthesis inhibitor. As indices of anaphylactic symptoms, a body temperature decrease and a blood pressure decrease were observed.

[5] = tested on: HUVECs; assay: Endothelial barrier function: transendothelial electrical resistance (TER); assay type: cell-based, human
Procedure: (§3) In Examples 4 to 6, human umbilical vein endothelial cells (hereinafter, sometimes referred to as “HUVECs”, manufactured by Lonza) were cultured in EGM-2 (manufactured by Lonza K.K.). These cells (passages 4 to 9) were used for experiments after 4-hour starvation in EBM-2 (manufactured by Lonza K.K.) containing 2% FBS.
The in vitro endothelial barrier function was evaluated by measuring the transendothelial electrical resistance (hereinafter, sometimes referred to as “TER”) of the HUVECs prepared in the above item (1) over time. Specifically, the transendothelial electrical resistance was measured using an xCELLigence Real-Time Cell Analyzer DP system (manufactured by Roche). The system monitors changes in TER across an interdigitated microelectrode at the bottom of tissue culture E-plates (manufactured by Roche). The HUVECs (8,000 cells) were plated on the E-plates and incubated until confluent. Then, the following operation (a) or (b) was performed.
(a) Each reagent was added to plates on which the HUVECs were cultured, so as to give a vehicle, 1 U/mL thrombin, 1 μM forskolin, or 0.1 μM or 0.3 μM 5,6-DiHETE (FIGS. 4A and 4B).
(b) A vehicle or […] was added to plates on which the HUVECs were cultured, so as to attain 10 μM. […] Thirty (30) minutes after the addition, 10 μM histamine was added to each plate 30 minutes after the addition (FIGS. 4C and 4D).
In the above operations (a) and (b), the TER was measured every 60 seconds. For normalization, the cell index value at each time point is shown as a ratio relative to the initial value. The maximum normalized cell index after stimulation was quantified and represented as maximal response. Note that it is known that the disruption of the endothelial barrier function lowers the TER, but that the enhancement of the endothelial barrier function increases the TER.

[6] = tested on: NO production in HUVECs; assay: Histamine-induced NO production (nitrite and nitrate); assay type: cell-based, human; conditions: pretreatment 10 μM, 15 minutes; histamine 10 μM
Procedure: as §3
The HUVECs were washed three times with HEPES and incubated in HEPES supplemented with 1 mM L-arginine and 10 μM tetrahydrobiopterin. After equilibration for 30 minutes, the medium was exchanged, and the cells were incubated for additional 30 minutes. […] The conditioned media before and after the stimulation (100 μL each) were collected and centrifuged in each amount of 300 g for 3 minutes. The supernatants were collected, and used to measure nitrite and nitrate, as stable metabolites of NO, by an ENO-20 NOx analyzer (manufactured by Eicom Corporation). The degrees of increases of nitrite and nitrate levels after the stimulation were normalized with cellular protein contents.

[7] = tested on: mouse aortae; assay: Measurement of vascular contraction of aorta (aortic ring specimens); conditions: cumulative addition 0.001, 0.01, 0.1 and 1 μM
Procedure: After excision of the thoracic aortae from untreated mice and removal of fat and connective tissue, the aortae were cut into rings to prepare aortic ring specimens. The ring specimens were immersed in a liquid tank filled with a normal nutrient solution (physiological saline solution containing 136.9 mM NaCl, 5.4 mM KCl, 5.5 mM glucose, 23.8 mM NaHCO3, 1.5 mM CaCl2, 1.0 mM MgCl2 and 0.01 mM EDTA), and two stainless hooks were penetrated through the lumens of the ring specimens. One end of each of the stainless hooks was fixed, and the other end thereof was connected to a force-displacement transducer (T7-30-240, manufactured by Orientec Co., Ltd.) connected to a strain amplifier (3134 strain AMPL, manufactured by Yokogawa Test & Measurement Corporation). Then, the following operation (a), (b) or (c) was performed.
(a) Norepinephrine (manufactured by Sigma) was cumulatively added into the liquid tank containing the ring specimens after stabilization of each contraction (every about 30 minutes) so as to attain 0.001 μM, 0.01 μM, 0.1 μM and 1 μM, and this group was designated as a “norepinephrine-administered group” (n=4) (FIG. 3A). 5,6-DiHETE was cumulatively added into the liquid tank containing the ring specimen after stabilization of each contraction (every about 30 minutes) so as to attain 0.001 μM, 0.01 μM, 0.1 μM and 1 μM, and this group was designated as a “5,6-DiHETE-administered group” (n=4) (FIG. 3A).
(b) Norepinephrine was added into the liquid tank containing the ring specimens so as to attain 0.3 μM, and precontraction was induced by administration of norepinephrine (FIG. 3B). Then, after the contraction by the administration of norepinephrine was stabilized, acetylcholine (manufactured by Sigma) was cumulatively added after stabilization of each relaxation reaction (every about 15 minutes) so as to attain 0.03 μM, 0.1 μM, 0.3 μM and 1 μM, and this group was designated as an “acetylcholine-administered group” (FIG. 3B). After the contraction by the administration of norepinephrine was stabilized, 5,6-DiHETE was cumulatively added every about 15 minutes so as to attain 0.001 μM, 0.01 μM, 0.1 μM and 1 μM, and this group was designated as a “5,6-DiHETE-administered group” (n=4) (FIG. 3B).
(c) In order to verify the effect of 5,6-DiHETE on the acetylcholine administration, norepinephrine was added into the liquid tank containing the ring specimens so as to attain 1 μM. After the contraction by the administration of norepinephrine was stabilized, 5,6-DiHETE or a vehicle (solvent alone) was added so as to attain 1 μM. […]
In the above operations (a) to (c), tension (contractile force) generated in the aortic ring specimens was measured isometrically over time using the above force-displacement transducer under a resting tension of 3 mN, and recorded.

CC/C=C\C/C=C\C/C=C\C/C=C\C=C\C(O)C/C=C\CCC(=O)O (stereo not drawn) [7-HDoHE]
effect on histamine-induced dye extravasation ([1]; pretreatment 0.1 μg/ear): did not affect histamine-induced dye extravasation

CC/C=C\CC(O)/C=C/C=C\CCCCCCCC(=O)O (stereo not drawn) [13-HOTrE]
effect on histamine-induced dye extravasation ([1]; pretreatment 0.1 μg/ear): did not affect histamine-induced dye extravasation

Cc1c(C(=O)Nc2cccc(C(F)(F)F)c2)cc(-c2ccccc2)n1CCCN1CCOCC1 [HC-067047, reference compound]
recovery from colitis as compared with the colitis group [2]: promoted in recovery from colitis
colon edema, wet/dry weight ratio [3]: 5.0±0.1
histologic score of colitis [3]: 2.8±0.4

COC(=O)[C@@H](N)CCCNC(=N)N[N+](=O)[O-] [L-NAME]
blood pressure [4]: 106.6±8.8 mmHg
body temperature decrease [4]: −0.8±0.2 °C

[Cl][La]([Cl])[Cl] [LaCl3]
effect on histamine-induced dye extravasation ([1]; pretreatment 250 μg/ear): significantly inhibited dye extravasation

CN(C)CCOC(c1ccccc1)c1ccccc1 [diphenhydramine, reference compound]
histamine-induced reduction of TER ([5]; 10 μM pretreatment before histamine 10 μM): abrogated
histamine-induced NO production [6]: abrogated

NC[C@H](O)c1ccc(O)c(O)c1 [norepinephrine, reference compound]
contraction of aorta [7]: contracted in a concentration-dependent manner

thrombin
change of TER ([5]; 1 U/mL, alone): significantly lowered the TER
